Assay results: ChEMBL document CHEMBL1145366, “A new class of histamine H3 receptor antagonists derived from ligand based design” (Bioorg Med Chem Lett, 2007)

Experiments:
Histamine H3 receptor [1] = biological target: T1, Histamine H3 receptor (Homo sapiens, UniProt Q9Y5N1); assay: Binding affinity to human histamine H3 receptor
Histamine H3 receptor [2] = biological target: T1, Histamine H3 receptor; assay: Displacement of [3H](R)-alpha-methylhistamine from human histamine H3 receptor at 10 uM
[3] = biological target: Histamine H2 receptor (Homo sapiens) (UniProt P25021); assay: Displacement of [3H]tiotidine from human histamine H2 receptor at 10 uM
Sequence of Histamine H2 receptor (Homo sapiens) (P25021 whole entry): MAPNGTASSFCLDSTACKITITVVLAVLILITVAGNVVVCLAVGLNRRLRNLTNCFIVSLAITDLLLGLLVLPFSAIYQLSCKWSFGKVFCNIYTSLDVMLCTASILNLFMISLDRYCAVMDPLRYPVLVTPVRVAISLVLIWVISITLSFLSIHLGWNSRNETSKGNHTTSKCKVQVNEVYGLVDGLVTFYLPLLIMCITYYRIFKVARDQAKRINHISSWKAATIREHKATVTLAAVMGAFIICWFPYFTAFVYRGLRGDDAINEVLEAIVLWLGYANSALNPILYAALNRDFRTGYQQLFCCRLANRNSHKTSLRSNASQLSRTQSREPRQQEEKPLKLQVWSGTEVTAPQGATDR

[4] = biological target: Histamine H1 receptor (Homo sapiens) (UniProt P35367); assay: Displacement of [3H]pyrilamine from human histamine H1 receptor at 10 uM
Sequence of Histamine H1 receptor (Homo sapiens) (P35367 whole entry): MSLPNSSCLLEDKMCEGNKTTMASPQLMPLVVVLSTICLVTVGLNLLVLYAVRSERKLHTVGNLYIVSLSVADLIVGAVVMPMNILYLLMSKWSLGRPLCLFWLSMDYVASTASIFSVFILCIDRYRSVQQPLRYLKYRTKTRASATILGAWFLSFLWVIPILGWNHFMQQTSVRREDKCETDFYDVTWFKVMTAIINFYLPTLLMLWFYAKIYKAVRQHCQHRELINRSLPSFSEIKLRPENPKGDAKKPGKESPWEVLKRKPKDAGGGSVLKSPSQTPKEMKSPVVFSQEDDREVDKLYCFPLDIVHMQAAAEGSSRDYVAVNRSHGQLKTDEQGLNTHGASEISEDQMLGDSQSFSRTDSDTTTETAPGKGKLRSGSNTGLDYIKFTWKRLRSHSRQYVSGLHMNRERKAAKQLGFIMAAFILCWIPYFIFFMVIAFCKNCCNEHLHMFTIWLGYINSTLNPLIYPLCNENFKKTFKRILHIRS

Histamine H3 receptor [5] = biological target: T1, Histamine H3 receptor; assay: Inverse agonist activity at human histamine H3 receptor by GTP gammaS assay; assay type: functional
Histamine H3 receptor [6] = biological target: Histamine H3 receptor (Rattus norvegicus, UniProt Q9QYN8); assay: Binding affinity to rat histamine H3 receptor
Sequence of Histamine H3 receptor (Rattus norvegicus, UniProt Q9QYN8) (Q9QYN8 whole entry): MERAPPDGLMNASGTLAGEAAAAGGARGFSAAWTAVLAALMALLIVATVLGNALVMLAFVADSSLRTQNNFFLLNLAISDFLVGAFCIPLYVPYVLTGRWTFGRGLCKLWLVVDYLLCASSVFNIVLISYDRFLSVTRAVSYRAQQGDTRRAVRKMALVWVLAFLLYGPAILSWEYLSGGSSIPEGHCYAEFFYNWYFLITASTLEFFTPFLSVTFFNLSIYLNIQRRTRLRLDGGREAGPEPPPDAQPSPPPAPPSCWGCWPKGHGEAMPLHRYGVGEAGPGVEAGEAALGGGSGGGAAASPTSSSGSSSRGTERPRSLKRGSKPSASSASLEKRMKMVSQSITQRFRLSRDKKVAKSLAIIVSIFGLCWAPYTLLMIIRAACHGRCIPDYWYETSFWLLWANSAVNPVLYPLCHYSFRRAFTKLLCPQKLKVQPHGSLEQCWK

T1 sequence (Q9Y5N1 whole entry): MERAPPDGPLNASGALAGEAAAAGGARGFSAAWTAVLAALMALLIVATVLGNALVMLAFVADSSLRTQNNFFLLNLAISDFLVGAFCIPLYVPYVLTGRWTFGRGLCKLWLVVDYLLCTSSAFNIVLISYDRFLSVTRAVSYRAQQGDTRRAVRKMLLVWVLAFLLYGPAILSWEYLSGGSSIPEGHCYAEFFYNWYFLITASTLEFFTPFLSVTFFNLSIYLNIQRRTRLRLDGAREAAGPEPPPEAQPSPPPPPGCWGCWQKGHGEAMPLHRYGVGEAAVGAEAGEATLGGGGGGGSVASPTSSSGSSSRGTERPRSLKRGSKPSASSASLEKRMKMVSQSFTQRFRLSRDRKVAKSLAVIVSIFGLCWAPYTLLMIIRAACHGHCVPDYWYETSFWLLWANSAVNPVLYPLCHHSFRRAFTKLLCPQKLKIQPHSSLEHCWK

Row | Structure (SMILES) | Ki (Histamine H3 receptor [1]) [nM] | Activity (Histamine H3 receptor [2]) [%] | further results
1 | CN(C)Cc1cc(OCC2CCCN(C)C2)ccc1OCc1ccccc1Cl (stereo unspecified) | 150 |  | 
2 | COc1ccccc1COc1ccc(OCCCN2CCOCC2)cc1C(=O)N(C)C | 1390 | 73.4 | 
3 | CN(C)C(=O)c1cc(OCCC2CCCN2C)ccc1OCc1ccccc1Cl (stereo unspecified) | 1810 |  | 
4 | CN(C)CCCOc1ccc(Nc2ncnc3ccccc23)c(CN(C)C)c1 | 18 |  | Activity [3]: -2%; Activity [4]: -15%
5 | COC(=O)c1ccc(COc2ccc(Nc3ncnc4ccccc34)c(CN(C)C)c2)cc1 |  | 31 | 
6 | CN(C)C(=O)c1cc(OCCCN2CCOCC2)ccc1OCc1ccccc1Cl | 1100 |  | 
7 | CN(C)CCCOc1ccc(OCc2ccccc2Cl)c(CN(C)C)c1 | 135 |  | 
8 | CN(C)Cc1cc(OCCCN2CCCCC2)ccc1OCc1ccccc1Cl | 2.4 |  | 
9 | CN(C)C(=O)c1cc(OC2CCCCO2)ccc1OCc1ccccc1Cl (stereo unspecified) |  | 17 | 
10 | CN(C)Cc1cc(O)ccc1Nc1ncnc2ccccc12 |  | 11.6 | 
11 | CN(C)C(=O)c1cc(OCCCN2CCCCC2)ccc1OCc1ccccc1Cl | 47 |  | Activity [4]: 8%
12 | COc1ccccc1COc1ccc(OCCCN2CCCCC2)cc1C(=O)N(C)C | 12 |  | 
13 | CN(C)Cc1cc(OCCCN2CCCCC2)ccc1Nc1ncnc2ccccc12 | 0.3 |  | Activity [3]: 2.4%; EC50 (Histamine H3 receptor [5]): 0.2 nM; Ki (Histamine H3 receptor [6]): 9.8 nM; Activity [4]: -2.5%
14 | CN(C)Cc1cc(OCCCCl)ccc1Nc1ncnc2ccccc12 |  | 49 | 
15 | CCOC(=O)CCCOc1ccc(Nc2ncnc3ccccc23)c(CN(C)C)c1 |  | 28 | 
16 | CN(C)C(=O)c1cc(OCc2ccc(F)cc2)ccc1OCc1ccccc1Cl |  | 33 | 
17 | CN(C)CCCOc1ccc(Oc2ncnc3ccccc23)c(C(=O)N(C)C)c1 | 1020 |  | 
18 | CC(C)N1CCC(Oc2ccc(OCc3ccccc3Cl)c(CN(C)C)c2)C1 (stereo unspecified) | 88 |  | 
